Assay results published in patent publication US20020002277A1, “Inhibitors of platelet activation and recruitment” (priority 1998, published 2002).

Assays:
platelets = experiment: Ex vivo additive inhibition of platelet aggregation in platelet rich plasma from patients; assay type: cell-based, human; conditions: PRP from patients receiving the drug (clopidogrel, ticlopidine, abciximab groups also received aspirin)
Method: Each group consisted of three to six patients. […] SoICD39 (10 μg/ml or 100 μg/ml) was then added and the additional inhibition of platelet activation (over baseline, in response to the platelet agonists) was measured in each of the five groups.

murine platelets = experiment: Ex vivo aggregation of murine platelets after treatment; assay type: in vivo, C57BL/6J mice; conditions: PRP 1 hour after solCD39 4 mg/kg or aspirin 5 mg/kg
Method: C57BL/6J mice (6-8 wk) were obtained from Jackson Laboratories (Bar Harbor, Me.). […] 80 μL of 3.8% trisodium citrate was added to each mL of blood. […] The PRP contained 400-700×10^3 platelets per μL. All experiments were completed within 2 hours of blood collection. PRP (200 μL) was preincubated, for 3 min. at 37° C., with 100 μL Tris-buffered saline buffer ([…], 5 mM glucose, pH 7.4) in an aggregometer cuvette (Lumiaggregometer; Chrono-Log, Havertown, Pa.), and the platelet agonists ADP, collagen, or sodium arachidonate were added at the final concentrations indicated.

[1] = Murine model of stroke (middle cerebral artery occlusion); assay type: in vivo, C57BL/6J mice
Method: Anesthetized mice were maintained at 37±2° C. during and for 90 min following surgery. A midline neck incision was made and the right carotid artery exposed. Middle cerebral artery occlusion was accomplished by advancing a 13-mm heat-blunt tipped 6-0 nylon suture via an arteriotomy in the external carotid stump. The external carotid artery was cauterized to secure hemostasis, and arterial flow re-established. […] Surgical staples were used for wound closure.

[2] = Phosphate release assay for ATPase activity; assay type: biochemical; conditions: for Activity (pmol ATP/min/μg) × 10^3: specific activity based on ELISA concentration, COS-1 1x supernatant, 10 cm plates, 5 days; for CPM × 10^3 (net counts), ATPase activity in CM: 5 days (Table 3)
Method: This example describes an ATPase assay that may be used to track enzyme activity. Samples (approximately 100 μl of either concentrated CM or purified polypeptide) are combined with 20 μl of 10X assay buffer (200 mM HEPES, 1.2 M NaCl, 50 mM KCl, 15 mM CaCl2, 15 mM MgCl2 and 3 mM ATP) and sterile water is added to a final volume of 200 μl. Radiolabeled ATP (0.8 μCi γ [^32P] ATP; Amersham, Arlington Heights, Ill.) is added and the mixture incubated for 20 minutes at 37° C. Stop mix (0.5 ml of 20% activated charcoal/1 M HCl) is added and the reaction is placed on ice for 10 minutes. After centrifugation (14K rpm for 10 minutes), the supernatant is assayed for free ^32P using a scintillation counter. Data are expressed as raw counts or net counts, or as picomoles of ATP degraded per minute.
The transfections were repeated and the CM (10, 20 and 30 μL, unconcentrated) was assayed essentially as described in Example 7. […] ATPase levels in CM from COS-1 cells transfected with pIL2LFlagSolCD39 increased with time in culture over at least 4 days post-transfection.
To determine whether activity was affected by removal of the N-terminal FLAG® tag, COS-1 cells were transfected with pIL2LFlagSolCD39 and pIL2LSolCD39 and supernatants (sups) were harvested after 5 days. Samples of 10, 20 and 30 μL of 1x sups were assayed for ATPase activity as described in Example 7.
The expression of Trim1 and Trim2 constructs was analyzed in COS-1 cells cultured in 10 cm plates. After 5 days of incubation, 1x supernatants were examined via ELISA (using anti-CD39) and the phosphate-release assay described in Example 7. […] Expression levels, however, appeared to be reduced 3-4 fold.

[3] = Enzymatic (ATPase and ADPase) activity of site-directed CD39 mutants; assay type: biochemical; conditions: alanine replacement mutant
Method: Mutants were assayed for enzymatic (ATPase and ADPase) and platelet inhibitory (dose-dependent inhibition of platelet aggregation) activities. For one series of mutants, residues within the conserved apyrase regions were replaced with alanine.

## COC(=O)[C@H](c1ccccc1Cl)N1CCc2sccc2C1 [Clopidogrel, clopidogrel]
platelets; agonist ADP
  Platelet aggregation, baseline: 58 ± 6 arbitrary units
platelets; agonist Collagen
  Platelet aggregation, baseline: 57 ± 9 arbitrary units
platelets; agonist TRAP
  Platelet aggregation, baseline: 51 ± 2 arbitrary units

## CC(=O)Oc1ccccc1C(=O)O [aspirin, acetylsalicylic acid]
platelets; agonist ADP
  Platelet aggregation, baseline: 69 ± 5 arbitrary units
platelets; agonist Collagen
  Platelet aggregation, baseline: 62 ± 8 arbitrary units
platelets; agonist TRAP
  Platelet aggregation, baseline: 66 ± 6 arbitrary units
Murine platelets; 2.5 μg/ml collagen
  ex vivo platelet aggregation, collagen: strongly aggregated
Murine platelets; 10 μM ADP
  ex vivo platelet aggregation, ADP: strongly aggregated
Murine platelets; 0.1 mM sodium arachidonate
  ex vivo platelet aggregation, arachidonate: only blocked platelet reactivity to arachidonate
[1]; 24 hours after stroke induction
  postischemic cerebral blood flow: no improvement was seen in postischemic cerebral blood flow
[1]; measured spectrophotometrically, any dose of solCD39 tested, aspirin 5 mg/kg
  intracerebral hemorrhage following stroke: increased intracerebral hemorrhage
[1]; preoperative administration, solCD39 4 & 8 mg/kg, aspirin 5 mg/kg
  cerebral infarct volume: tendency to decrease cerebral infarct volume, although this effect was not statistically significant

B1: pIL2LTrim2: huIL2 leader with an intervening Ala-Ser-Ser linker preceding solCD39 (protein)
chain: TQNKALPENVKYGIVLDAGSSHTSLYIYKWPAEKENDTGVVHQVEECRVKGPGISKFVQKVNEIGIYLTDCMERAREVIPRSQHQETPVYLGATAGMRLLRMESEELADRVLDVVERSLSNYPFDFQGARIITGQEEGAYGWITINYLLGKFSQKTRWFSIVPYETNNQETFGALDLGGASTQVTFVPQNQTIESPDNALQFRLYGKDYNVYTHSFLCYGKDQALWQKLAKDIQVASNEILRDPCFHPGYKKVVNVSDLYKTPCTKRFEMTLPFQQFEIQGIGNYQQCHQSILELFNTSYCPYSQCAFNGIFLPPLQGDFGAFSAFYFVMKFLNLTSEKVSQEKVTEMMKKFCAQPWEEIKTSYAGVKEKYLSEYCFSGTYILSLLLQGYHFTADSWEHIHFIGKIQGSDAGWTLGYMLNLTNMIPAEQPLSTPLSHST
modifications: left off: small tags and cut ends
[2]
  Activity (pmol ATP/min/μg) × 10^3: 6.67 pmol ATP/min/μg × 10^3

B2: pIL2LTrim1: huIL2 leader joined to solCD39 with an intervening alanine residue (SEQ ID NO:27) (protein)
chain: MALWIDRMQLLSCIALSLALVTNSATQNKALPENVKYGIVLDAGSSHTSLYIYKWPAEKENDTGVVHQVEECRVKGPGISKFVQKVNEIGIYLTDCMERAREVIPRSQHQETPVYLGATAGMRLLRMESEELADRVLDVVERSLSNYPFDFQGARIITGQEEGAYGWITINYLLGKFSQKTRWFSIVPYETNNQETFGALDLGGASTQVTFVPQNQTIESPDNALQFRLYGKDYNVYTHSFLCYGKDQALWQKLAKDIQVASNEILRDPCFHPGYKKVVNVSDLYKTPCTKRFEMTLPFQQFEIQGIGNYQQCHQSILELFNTSYCPYSQCAFNGIFLPPLQGDFGAFSAFYFVMKFLNLTSEKVSQEKVTEMMKKFCAQPWEEIKTSYAGVKEKYLSEYCFSGTYILSLLLQGYHFTADSWEHIHFIGKIQGSDAGWTLGYMLNLTNMIPAEQPLSTPLSHST
[2]
  Activity (pmol ATP/min/μg) × 10^3: 8.38 pmol ATP/min/μg × 10^3

B3: S218A mutant: CD39 mutant, Serine218 replaced with alanine (protein, UniProt P49961 1-510, looked up, variant S218A)
Ectonucleoside triphosphate …: MEDTKESNVKTFCSKNILAILGFSSIIAVIALLAVGLTQNKALPENVKYGIVLDAGSSHTSLYIYKWPAEKENDTGVVHQVEECRVKGPGISKFVQKVNEIGIYLTDCMERAREVIPRSQHQETPVYLGATAGMRLLRMESEELADRVLDVVERSLSNYPFDFQGARIITGQEEGAYGWITINYLLGKFSQKTRWFSIVPYETNNQETFGALDLGGAATQVTFVPQNQTIESPDNALQFRLYGKDYNVYTHSFLCYGKDQALWQKLAKDIQVASNEILRDPCFHPGYKKVVNVSDLYKTPCTKRFEMTLPFQQFEIQGIGNYQQCHQSILELFNTSYCPYSQCAFNGIFLPPLQGDFGAFSAFYFVMKFLNLTSEKVSQEKVTEMMKKFCAQPWEEIKTSYAGVKEKYLSEYCFSGTYILSLLLQGYHFTADSWEHIHFIGKIQGSDAGWTLGYMLNLTNMIPAEQPLSTPLSHSTYVFLMVLFSLVLFTVAIIGLLIFHKPSYFWKDMV
[3]
  ADPase activity retained: less than 10%

B4: pIL2LSolCD39: untagged soluble human CD39 with huIL2 leader, 12 mature IL2 residues and three amino acid linker (SEQ ID NO:7) (protein)
chain: MALWIDRMQLLSCIALSLALVTNSAPTSSSTKKTQLTSSTQNKALPENVKYGIVLDAGSSHTSLYIYKWPAEKENDTGVVHQVEECRVKGPGISKFVQKVNEIGIYLTDCMERAREVIPRSQHQETPVYLGATAGMRLLRMESEELADRVLDVVERSLSNYPFDFQGARIITGQEEGAYGWITINYLLGKFSQKTRWFSIVPYETNNQETFGALDLGGASTQVTFVPQNQTIESPDNALQFRLYGKDYNVYTHSFLCYGKDQALWQKLAKDIQVASNEILRDPCFHPGYKKVVNVSDLYKTPCTKRFEMTLPFQQFEIQGIGNYQQCHQSILELFNTSYCPYSQCAFNGIFLPPLQGDFGAFSAFYFVMKFLNLTSEKVSQEKVTEMMKKFCAQPWEEIKTSYAGVKEKYLSEYCFSGTYILSLLLQGYHFTADSWEHIHFIGKIQGSDAGWTLGYMLNLTNMIPAEQPLSTPLSHST
[2]; 10 μL 1x COS-1 supernatant
  CPM × 10^3 (net counts), ATPase activity in CM: 20.1 CPM × 10^3
[2]; 20 μL 1x COS-1 supernatant
  CPM × 10^3 (net counts), ATPase activity in CM: 36.0 CPM × 10^3
[2]; 30 μL 1x COS-1 supernatant
  CPM × 10^3 (net counts), ATPase activity in CM: 51.0 CPM × 10^3
[2]
  Activity (pmol ATP/min/μg) × 10^3: 5.67 pmol ATP/min/μg × 10^3

B5: Abciximab: platelet-specific chimeric antibody, glycoprotein IIb/IIIa antagonist (trade name ReoPro) (antibody, chains of the INN, looked up, V domains shown)
VH: EVQLQQSGTVLARPGASVKMSCEASGYTFTNYWMHWVKQRPGQGLEWIGAIYPGNSDTSYIQKFKGKAKLTAVTSTTSVYMELSSLTNEDSAVYYCTLYDGYYVFAYWGQGTLVTVSA
VL: EIVLTQSPVTLSVTPGDSVSLSCRASRDISNNLHWFQQTSHESPRLLIKYASQSMSGIPSRFSGSGSGTDFTLSINSVETEDFGMYFCQQTNSWPYTFGGGTKLEIK
modifications: Fab
platelets; agonist ADP
  Platelet aggregation, baseline: 0 ± 0 arbitrary units
platelets; agonist Collagen
  Platelet aggregation, baseline: 0 ± 0 arbitrary units
platelets; agonist TRAP
  Platelet aggregation, baseline: 46 ± 6 arbitrary units
